Data from US20170368082A1, “FORMULATIONS OF BRINCIDOFOVIR” (priority 2016, published 2017).

Tests used:
Format in all cases: physicochemical
[1] = Preclinical infusion system assembly (rats) compatibility; conditions: 0.2 mg/mL (Test #1)
Experimental: The compatibility of the following brincidofovir formulations with an infusion system assembly for dosing of rats (consisting of a syringe, tether, catheter and syringe pump) was tested
a.) 0.2 mg/mL brincidofovir, 4 mM sodium phosphate, pH˜8.0, approx. 4.90% dextrose; b.) 1.5 mg/mL brincidofovir, 30 mM sodium phosphate, pH-8.0, approx. 4.25% dextrose.
Both solutions were prepared via dilution of the developed brincidofovir formulation (10 mg/mL brincidofovir, 200 mM sodium phosphate, pH=8.0) with a 5% dextrose solution. The testing procedure can be summarized as follows: • 1. The appearance, pH, and c(BCV) of the bulk testing solutions (0.2 mg/mL BCV, 4 mM sodium phosphate, pH-8.0, approx. 4.90% dextrose, and 1.5 mg/mL BCV, 30 mM sodium phosphate, pH˜8.0, approx. 4.25% dextrose were assessed pre-contact. • 2. Approximately 5 mL of the testing solution was drawn into a syringe which was then connected to the assembled infusion system (Vascular Access Harness (VAH) tether kit, the VAH port for rat jacket, and catheter). • 3. The infusion system was manually filled with the testing solution. Approximately 200 μL of the testing solution were pushed out of the infusion system and collected as an end-of-line sample (to) for the assessments of appearance and c(BCV). • 4. The syringe of the testing infusion system was mounted onto the syringe pump, and a flow rate was set to a flow of 1.2 mL/h ([…]) for a total dispensing volume of 2.4 mL (120 min). • 5. The entire flow-through was collected over the course of the experiment. At the respective time points (t10min, t105 min), end-of-line samples (approx. 200 μL) were collected for analysis. • 6. The pH of the bulk flow-through was measured at the end of the experiment (t120 min), since the volume of samples acquired from previous time points (200 μL) was too small for a standard pH measurement.

[2] = Infusion vehicle (5% dextrose) compatibility; conditions: ambient
Experimental: A brincidofovir formulation comprising 10 mg/mL brincidofovir, 200 mM sodium phosphate, and 69 mM dextrose (pH=8.0) was diluted with the testing infusion vehicle (5% dextrose solution) to yield c(BCV)=0.5 and 1.0 mg/mL solutions. The diluted solutions were stored at ambient conditions, and samples were collected at initially at the beginning of the experiment, and after 2 h, 8 h, and 24 h and evaluated for appearance, pH, and recovery of c(BCV) (via HPLC). […] Detailed results of the study are summarized below (Table 18).
The Formulation 3a was diluted with the infusion vehicle (5% dextrose) solution to yield c(BCV)=0.5 mg/mL and 1.0 mg/mL solutions. The appearance, pH, and brincidofovir recovery (determined via HPLC) were evaluated at the time of preparing the test solution (to), and after 2 h (t2h), 8 h (t8h), and 24 h (t24h)

[3] = Sterilization filter compatibility
Experimental: Formulations of the disclosure were evaluated for sterilization filter compatibility. Aliquots of a testing brincidofovir formulation were filtered through the corresponding syringe filters as follows:
A: Filter: 0.2 μm, 25 mm, syringe filter, Supor® membrane (PES), sterile; testing solution: 10 mg/mL brincidofovir, 200 mM sodium phosphate, pH=8.0; testing volume: 10 mL. B: Filter: 0.2 μm, 25 mm, syringe filter, Posidyne® membrane, sterile; testing solution: 10 mg/mL brincidofovir, 200 mM sodium phosphate, pH=8.0; testing volume: 10 mL. C: Filter: 0.22 μm, 33 mm, syringe filter, Durapore® PVDF membrane, γ-irradiated; testing solution: […] brincidofovir, 4 mM sodium phosphate, pH-8, approx. 5% dextrose (50× dilution of 10 mg/mL brincidofovir, 200 mM sodium phosphate, pH=8.0 with 5% dextrose solution; testing volume: 50 mL.
The first and last 10% of the filtrate were collected. Samples of the collected filtrates, along with samples of the pre filtration formulation, were assessed for their appearance, pH, and c(BCV).

[4] = c(BCV) 0.5 mg/mL in 5% dextrose, 0 h
[5] = c(BCV) 0.5 mg/mL in 5% dextrose, 2 h
[6] = c(BCV) 0.5 mg/mL in 5% dextrose, 8 h
[7] = c(BCV) 0.5 mg/mL in 5% dextrose, 24 h
[8] = c(BCV) 1.0 mg/mL in 5% dextrose, 0 h
[9] = c(BCV) 1.0 mg/mL in 5% dextrose, 2 h
[10] = c(BCV) 1.0 mg/mL in 5% dextrose, 8 h
[11] = c(BCV) 1.0 mg/mL in 5% dextrose, 24 h
[12] = PES filter membrane, first 10% filtrate volume
[13] = PES filter membrane, last 10% filtrate volume
[14] = PES filter membrane, pre filtration
[15] = PVDF filter membrane, first 10% filtrate volume
[16] = PVDF filter membrane, last 10% filtrate volume
[17] = PVDF filter membrane, pre filtration
[18] = Posidyne filter membrane, first 10% filtrate volume
[19] = Posidyne filter membrane, last 10% filtrate volume
[20] = Posidyne filter membrane, pre filtration

CCCCCCCCCCCCCCCCOCCCOP(=O)(O)CO[C@H](CO)Cn1ccc(N)nc1=O [Brincidofovir]
0.49 mg/mL: Observed c(BCV) [2, 7]
9.9 mg/mL: Observed c(BCV) [3, 14] | Observed c(BCV) [3, 20]
Clear, colorless: Appearance ([1]; pre contact (bulk solution)) | Appearance ([1]; t0) | Appearance ([1]; t10 min) | Appearance ([1]; t105 min) | Appearance ([1]; t120 min (bulk solution)) | Appearance [2, 4] | Appearance [2, 5] | Appearance [2, 6] | Appearance [2, 7] | Appearance [2, 8] | Appearance [2, 9] | Appearance [2, 10] | Appearance [2, 11]
1.0 mg/mL: Observed c(BCV) [2, 8] | Observed c(BCV) [2, 9] | Observed c(BCV) [2, 10] | Observed c(BCV) [2, 11]
8.2: Measured pH [2, 4] | Measured pH [2, 6] | Measured pH [2, 7] | Measured pH [2, 8] | Measured pH [2, 9] | Measured pH [2, 10] | Measured pH [2, 11]
9.7 mg/mL: Observed c(BCV) [3, 18]
0.16 mg/mL: Observed c(BCV) ([1]; t10 min)
Clear,: Appearance [3, 12] | Appearance [3, 13] | Appearance [3, 14] | Appearance [3, 15] | Appearance [3, 16] | Appearance [3, 17] | Appearance [3, 18] | Appearance [3, 19] | Appearance [3, 20]
0.21 mg/mL: Observed c(BCV) ([1]; pre contact (bulk solution))
0.51 mg/mL: Observed c(BCV) [2, 4] | Observed c(BCV) [2, 5] | Observed c(BCV) [2, 6]
0.20 mg/mL: Observed c(BCV) ([1]; t105 min) | Observed c(BCV) [3, 15] | Observed c(BCV) [3, 16] | Observed c(BCV) [3, 17]
8.3: Measured pH [2, 5]
9.8 mg/mL: Observed c(BCV) [3, 12] | Observed c(BCV) [3, 13] | Observed c(BCV) [3, 19]
8.1: Measured pH [3, 14] | Measured pH [3, 15] | Measured pH [3, 16] | Measured pH [3, 20]
0.19 mg/mL: Observed c(BCV) ([1]; t0)
8.0: Measured pH ([1]; pre contact (bulk solution)) | Measured pH ([1]; t120 min (bulk solution)) | Measured pH [3, 12] | Measured pH [3, 13] | Measured pH [3, 17] | Measured pH [3, 18] | Measured pH [3, 19]
